Entries after “also recorded” stand apart in the source; their conditions may differ.
How the values were obtained:
serum RBP4 = serum RBP4 (Mus musculus (Mouse), UniProt Q00724); experiment: Serum RBP4 after long-term oral dosing in Abca4−/− mice; assay type: in vivo; settings: 25 mg/kg daily in chow
Protocol: FIG. 7. Effect of the long-term oral (±)-44 administration in Abca4^−/− mice on serum RBP4 levels. Serum RBP4 levels were measured in vehicle-treated Abca4^−/− mice (squares) and (±)-44-treated Abca4-mice (triangles) at the indicated time points. […] Error bars show S.D. Each data point on the graph represents a serum RBP4 concentration from an individual animal.
Blood samples were collected from a tail vein. Whole blood was drawn into a centrifuge tube and was allowed to clot at room temperature for 30 minutes followed by centrifugation at 2000 g for 15 minutes at […] to collect serum. Aliquots of plasma samples collected in the mouse pharmacokinetic study were analyzed for the RBP4 concentration using the RBP4 (mouse/rat) dual ELISA kit (AdipoGen, San Diego, CA) following the manufacturer's instructions. In adi-hRBP4 transgenic mouse experiments, blood samples were collected from a tail vein. Whole blood was drawn into a centrifuge tube and was allowed to clot at room temperature for 30 min followed by centrifugation at 2000 g for 15 min at +4° C. to collect serum. Mouse serum RBP4 (produced predominantly in the liver) was measured using the RBP4 (mouse/rat) dual ELISA kit (AdipoGen, San Diego, CA; catalog number AG-45A-0012YTP-KI01)
(±)-44 was formulated into a Picolab 5053 chow to ensure a daily dosing of 25 mg/kg of (±)-44. […]

hERG = hERG (Homo sapiens (Human), UniProt Q12809); experiment: CiPA hERG QPatch Assay; assay type: cell-based; settings: five-point concentration-response, n = 2
Sequence of hERG (Q12809 whole entry): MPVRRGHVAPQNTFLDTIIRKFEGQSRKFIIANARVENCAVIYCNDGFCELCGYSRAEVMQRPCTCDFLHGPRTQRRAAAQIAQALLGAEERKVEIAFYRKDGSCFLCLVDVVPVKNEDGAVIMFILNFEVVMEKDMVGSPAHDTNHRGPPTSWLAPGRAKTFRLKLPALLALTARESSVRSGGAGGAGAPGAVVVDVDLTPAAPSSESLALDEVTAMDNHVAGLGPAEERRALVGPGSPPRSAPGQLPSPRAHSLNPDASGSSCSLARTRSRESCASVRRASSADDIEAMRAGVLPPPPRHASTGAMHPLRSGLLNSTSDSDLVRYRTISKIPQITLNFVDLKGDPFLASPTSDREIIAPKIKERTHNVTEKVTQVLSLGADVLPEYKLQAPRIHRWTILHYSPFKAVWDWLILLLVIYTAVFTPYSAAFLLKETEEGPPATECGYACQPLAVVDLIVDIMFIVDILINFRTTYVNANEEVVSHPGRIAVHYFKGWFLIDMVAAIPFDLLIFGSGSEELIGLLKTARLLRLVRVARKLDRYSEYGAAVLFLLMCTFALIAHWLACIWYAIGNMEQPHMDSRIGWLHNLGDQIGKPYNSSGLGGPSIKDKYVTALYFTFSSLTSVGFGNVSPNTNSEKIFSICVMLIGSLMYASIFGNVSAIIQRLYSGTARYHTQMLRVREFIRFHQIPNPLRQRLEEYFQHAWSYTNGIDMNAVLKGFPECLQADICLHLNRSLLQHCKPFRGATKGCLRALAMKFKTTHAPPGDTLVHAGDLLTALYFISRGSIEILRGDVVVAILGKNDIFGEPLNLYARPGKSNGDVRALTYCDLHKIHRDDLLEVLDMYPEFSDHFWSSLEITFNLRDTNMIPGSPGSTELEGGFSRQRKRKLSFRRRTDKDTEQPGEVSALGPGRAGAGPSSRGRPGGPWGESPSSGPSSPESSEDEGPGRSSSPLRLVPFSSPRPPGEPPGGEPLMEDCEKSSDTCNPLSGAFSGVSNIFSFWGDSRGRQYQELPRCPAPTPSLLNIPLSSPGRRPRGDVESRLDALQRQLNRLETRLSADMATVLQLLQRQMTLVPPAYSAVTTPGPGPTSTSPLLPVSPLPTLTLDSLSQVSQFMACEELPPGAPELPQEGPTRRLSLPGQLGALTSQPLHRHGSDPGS

[1] = Metabolic stability and clearance in rat liver microsomes; assay type: in vitro ADME; settings: 30 minute incubation
Protocol: (§1) The results of metabolic stability determinations for novel compounds and testosterone (positive control) were conducted in the presence of human, rat, mouse, and monkey liver microsomes. Values shown are percent of parent remaining after a 30 minute incubation. All measurements were done in duplicate. Assay results for testosterone were within an acceptable range.
(§2) Mixed-gender human liver microsomes (Lot #1710084), male Sprague-Dawley rat liver microsomes (Lot #1610290), male CD-1 mouse liver microsomes (Lot #1710069), and male Cynomolgous liver microsomes (Lot #1510193) were purchased from XenoTech. The reaction mixture, minus NADPH, was prepared as described below. The test article was added into the reaction mixture at a final concentration of 1 μM. The control compound, testosterone, was run simultaneously with the test article in a separate reaction. An aliquot of the reaction mixture (without cofactor) was equilibrated in a shaking water bath at 37° C. for 3 minutes. The reaction was initiated by the addition of cofactor, and the mixture was incubated in a shaking water bath at 37° C. Aliquots (100 μL) were withdrawn at 0, 10, 20, 30, and 60. […] Half-lives were calculated using GraphPad software, fitting to a single-phase exponential decay equation.

[2] = Plasma protein binding, mouse plasma; assay type: in vitro ADME; settings: CD-1, pH 7.4, read-out: % PPB (converted)
Protocol: Plasma protein binding (PPB) for compounds determination for compound (±)-44 in PBS (pH 7.4) was conducted by Eurofins using equilibrium dialysis of plasma with HPLC-UV/Vis detection.
The peak areas of the test compound in the buffer and test samples were used to calculate percent binding and recovery according to the following formulas:
• Areap=Peak area of analyte in protein matrix • Areab=Peak area of analyte in buffer • Areac=Peak area of analyte in control sample

[3] = Metabolic stability and clearance in mouse liver microsomes; assay type: in vitro ADME; settings: 30 minute incubation
Protocol: as §1, §2

RBP4-TTR interaction = RBP4-TTR interaction (Homo sapiens (Human), UniProt P02753); experiment: HTRF RBP4-TTR interaction assay; assay type: biochemical; settings: 1 μM retinol; read-out: RBP4-TTR HTRF IC50
Protocol: HTRF Cryptate labeling kit from CisBio (Cisbio, cat #62EUSPEA, Bedfored, MA) was used to label TTR with Eu^3+ Cryptate. The assay was performed in a final assay volume of 16 μl in the buffer that contained 10 mM Tris-HCl pH 7.5, 1 mM DTT, 0.05% NP-40, 0.05% Prionex, 6% glycerol, and 400 mM KF. […] All of the reactions were performed under dim red light in the dark. The plates were read in the SpectraMax M5e Multimode Plate Reader (Molecular Devices, Sunnyvale, CA) after the overnight incubation at 4° C. […] The HTRF signal was expressed as the ratio of fluorescence intensity: Flu668/Flu620×10,000.

Abca4−/−/Rdh8−/− mice = experiment: Photoreceptor preservation (ONL thickness) in Abca4−/−/Rdh8−/− mice; assay type: in vivo, mouse; settings: 25 mg/kg daily in chow, 10 weeks
Protocol: FIG. 11. Photoreceptor protection in (±)-44-treated Rdh8^−/−Abca4^−/− mice. […] Data analyzed by two-way ANOVA with Sidak post hoc test.
(±)-44 was formulated into a Picolab 5053 chow to ensure a daily dosing of 25 mg/kg of (±)-44. Long-term 10-week dosing of the compound formulated into a chow was conducted in Abca4^−/−/Rdh8-mice. The age-matched control group of wild-type C57BL/6J mice was kept on a standard Picolab 5053 chow. After 10 weeks of dosing, whole eyes were collected and fixed in the 2% glutaraldehyde/4% paraformaldehyde. Eyes were embedded in paraffin and sectioned at a thickness of 8 μm. Sections were counterstained using hematoxylin and eosin (H&E). Morphologic observations and light microscopy was performed.

What does the source list for `Cc1cc(C(=O)O)nc(N2CCC(COc3ccccc3C(F)(F)F)C2)n1` (racemic) [Compound (±)-44, (±)-6-Methyl-2-(3-((2-(trifluoromethyl)phenoxy)methyl)pyrrolidin-1-yl)pyrimidine-4-carboxylic Acid]?
serum RBP4 reduction compared to untreated Abca4−/− mice (serum RBP4; week 12): 82%; serum RBP4 reduction compared with baseline (serum RBP4; week 12, Abca4−/− mice): 79%; IC50 (hERG): > 30000 nM; Liver Microsomal Stability (% remaining at 30 min), RLM [1]: 93%; fraction unbound [2]: 0.04; Liver Microsomal Stability (% remaining at 30 min), MLM [3]: 95%; IC50 (RBP4-TTR interaction): 250 nM; photoreceptor protection (ONL thickness) (Abca4−/−/Rdh8−/− mice): partially reversed; also recorded: Photoreceptor protection is evident at multiple points in the superior retina

Source: patent publication US20230348415A1, “BISPECIFIC ANTAGONISTS OF RETINOL-BINDING PROTEIN 4 THAT STABILIZE TRANSTHYRETIN TETRAMERS, THEIR PREPARATION, AND USE IN THE TREATMENT OF COMMON AGE-RELATED COMORBIDITIES” (The Trustees of Columbia University in the City of New York, priority 2020, published 2023)
